How the values were obtained:
[1] = biological target: T1, Kappa-type opioid receptor (Homo sapiens, UniProt P41145); experiment: Antagonist activity at human recombinant kappa opioid receptor expressed in CHO cell membranes assessed as inhibition of U69593-induced response after 60 mins by [35S]GTPgammaS binding assay; type: functional
[2] = biological target: T2, Delta-type opioid receptor (Homo sapiens, UniProt P41143); experiment: Displacement of [3H]Cl-DPDPE from human recombinant delta opioid receptor expressed in CHO cell membranes after 60 mins by scintillation counting method
[3] = biological target: T2, Delta-type opioid receptor; experiment: Antagonist activity at human recombinant delta opioid receptor expressed in CHO cell membranes assessed as inhibition of DPDPE-induced response after 60 mins by [35S]GTPgammaS binding assay; type: functional
Mu-type opioid receptor [4] = biological target: T3, Mu-type opioid receptor (Homo sapiens, UniProt P35372); experiment: Displacement of [3H]DAMGO from human recombinant mu opioid receptor expressed in CHO cell membranes after 60 mins by scintillation counting method
[5] = biological target: T1, Kappa-type opioid receptor; experiment: Displacement of [3H]U69593 from human recombinant kappa opioid receptor expressed in CHO cell membranes after 60 mins by scintillation counting method
Mu-type opioid receptor [6] = biological target: T3, Mu-type opioid receptor; experiment: Antagonist activity at human recombinant mu opioid receptor expressed in CHO cell membranes assessed as inhibition of DAMGO-induced response after 60 mins by [35S]GTPgammaS binding assay; type: functional
Mu-type opioid receptor [7] = biological target: T3, Mu-type opioid receptor; experiment: Agonist activity at human recombinant mu opioid receptor expressed in CHO cell membranes at 10 uM after 60 mins by [35S]GTPgammaS binding assay relative to DAMGO; type: functional
Nociceptin receptor [8] = biological target: T4, Nociceptin receptor (Homo sapiens, UniProt P41146); experiment: Agonist activity at human recombinant NOPR receptor expressed in CHO cell membranes at 10 uM after 60 mins by [35S]GTPgammaS binding assay relative to nociceptin; type: functional
[9] = biological target: T1, Kappa-type opioid receptor; experiment: Agonist activity at human recombinant kappa opioid receptor expressed in CHO cell membranes at 10 uM after 60 mins by [35S]GTPgammaS binding assay relative to U69593; type: functional
Homo sapiens [10] = species: Homo sapiens; experiment: Selectivity for human recombinant delta opioid receptor over human kappa opioid receptor
Homo sapiens [11] = species: Homo sapiens; experiment: Selectivity for human recombinant delta opioid receptor over human mu opioid receptor
Nociceptin receptor [12] = biological target: T4, Nociceptin receptor; experiment: Displacement of [3H]nociceptin from human recombinant NOP receptor expressed in CHO cell membranes after 60 mins by scintillation counting method
Mu-type opioid receptor [13] = biological target: T3, Mu-type opioid receptor; experiment: Agonist activity at human recombinant mu opioid receptor expressed in CHO cell membranes after 60 mins by [35S]GTPgammaS binding assay; type: functional
[14] = biological target: T2, Delta-type opioid receptor; experiment: Agonist activity at human recombinant delta opioid receptor expressed in CHO cell membranes after 60 mins by [35S]GTPgammaS binding assay relative to DPDPE; type: functional
[15] = biological target: T2, Delta-type opioid receptor; experiment: Agonist activity at human recombinant delta opioid receptor expressed in CHO cell membranes after 60 mins by [35S]GTPgammaS binding assay; type: functional
Mu-type opioid receptor [16] = biological target: T3, Mu-type opioid receptor; experiment: Agonist activity at human recombinant mu opioid receptor expressed in CHO cell membranes after 60 mins by [35S]GTPgammaS binding assay relative to DAMGO; type: functional
Homo sapiens [17] = species: Homo sapiens; experiment: Selectivity for human recombinant mu opioid receptor over human delta opioid receptor
Homo sapiens [18] = species: Homo sapiens; experiment: Selectivity for human recombinant mu opioid receptor over human kappa opioid receptor
[19] = biological target: T1, Kappa-type opioid receptor; experiment: Agonist activity at human recombinant kappa opioid receptor expressed in CHO cell membranes after 60 mins by [35S]GTPgammaS binding assay relative to U69593; type: functional
[20] = biological target: T1, Kappa-type opioid receptor; experiment: Agonist activity at human recombinant kappa opioid receptor expressed in CHO cell membranes after 60 mins by [35S]GTPgammaS binding assay; type: functional

T2 sequence (P41143 whole entry): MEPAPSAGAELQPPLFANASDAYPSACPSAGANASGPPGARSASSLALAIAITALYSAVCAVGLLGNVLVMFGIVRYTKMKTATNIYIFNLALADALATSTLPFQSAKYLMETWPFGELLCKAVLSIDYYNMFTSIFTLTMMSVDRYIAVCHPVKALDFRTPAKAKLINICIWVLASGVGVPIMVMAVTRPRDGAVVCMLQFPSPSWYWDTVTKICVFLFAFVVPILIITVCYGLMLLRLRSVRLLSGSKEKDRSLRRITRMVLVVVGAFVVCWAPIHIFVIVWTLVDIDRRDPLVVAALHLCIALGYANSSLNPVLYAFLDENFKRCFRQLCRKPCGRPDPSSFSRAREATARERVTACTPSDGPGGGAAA
T1 sequence (P41145 whole entry): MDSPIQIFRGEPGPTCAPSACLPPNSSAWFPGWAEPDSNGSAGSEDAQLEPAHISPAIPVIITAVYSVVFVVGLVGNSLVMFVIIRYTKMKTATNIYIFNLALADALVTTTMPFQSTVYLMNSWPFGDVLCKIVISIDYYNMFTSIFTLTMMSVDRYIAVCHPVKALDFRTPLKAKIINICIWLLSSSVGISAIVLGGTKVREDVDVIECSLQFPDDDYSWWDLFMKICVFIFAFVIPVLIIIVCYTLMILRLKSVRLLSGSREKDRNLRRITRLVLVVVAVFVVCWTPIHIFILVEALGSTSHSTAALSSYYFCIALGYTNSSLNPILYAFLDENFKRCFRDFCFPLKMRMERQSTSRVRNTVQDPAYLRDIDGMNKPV
T4 sequence (P41146 whole entry): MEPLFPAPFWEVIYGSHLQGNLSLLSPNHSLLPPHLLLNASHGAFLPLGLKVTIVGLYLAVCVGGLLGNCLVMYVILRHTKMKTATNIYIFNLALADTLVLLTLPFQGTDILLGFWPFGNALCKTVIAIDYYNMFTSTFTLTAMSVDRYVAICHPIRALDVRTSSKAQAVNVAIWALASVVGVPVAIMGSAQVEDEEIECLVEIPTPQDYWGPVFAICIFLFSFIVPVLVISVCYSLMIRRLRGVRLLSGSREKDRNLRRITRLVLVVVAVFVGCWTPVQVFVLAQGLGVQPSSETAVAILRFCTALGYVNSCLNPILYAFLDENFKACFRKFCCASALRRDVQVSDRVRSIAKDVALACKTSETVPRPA
T3 sequence (P35372 whole entry): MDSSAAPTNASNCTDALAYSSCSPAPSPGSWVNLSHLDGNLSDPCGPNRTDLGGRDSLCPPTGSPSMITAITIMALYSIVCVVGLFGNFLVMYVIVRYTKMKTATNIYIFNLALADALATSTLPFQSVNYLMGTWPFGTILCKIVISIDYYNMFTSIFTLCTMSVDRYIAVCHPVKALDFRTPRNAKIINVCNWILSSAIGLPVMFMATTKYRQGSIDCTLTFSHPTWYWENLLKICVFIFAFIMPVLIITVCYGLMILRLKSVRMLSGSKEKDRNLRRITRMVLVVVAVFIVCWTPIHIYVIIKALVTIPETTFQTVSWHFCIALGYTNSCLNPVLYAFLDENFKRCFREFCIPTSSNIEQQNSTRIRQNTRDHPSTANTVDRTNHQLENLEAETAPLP

| SMILES | Ke [1] | Ki [2] | Ki (Mu-type opioid receptor [4]) | Ki [5] | Ke (Mu-type opioid receptor [6]) | Smax (Mu-type opioid receptor [7]) | Smax (Nociceptin receptor [8]) | Smax [9] | EC50 (Mu-type opioid receptor [13]) | Activity [14] | EC50 [15] | Activity (Mu-type opioid receptor [16]) | other results |
| --- | --- | --- | --- | --- | --- | --- | --- | --- | --- | --- | --- | --- | --- |
| O=C1[C@@H](CCO)CC2=C([C@@H]3Oc4c(O)ccc5c4[C@@]34CCN(CC3CC3)[C@H](C5)[C@]4(O)C2)N1Cc1ccccc1 | 2.22 nM | 2.38 nM | 1.54 nM | 2.76 nM | 1.62 nM | – | – | – | – | – | – | – | Ke [3]: 0.93 nM |
| O=C1CCC2=C([C@@H]3Oc4c(O)ccc5c4[C@@]34CCN(CC3CC3)[C@H](C5)[C@]4(O)C2)N1Cc1cccc(F)c1 | – | – | – | – | – | -1% | 7% | -9% | – | – | – | – | – |
| Cc1[nH]c2c(c1Cc1ccccc1)C[C@@]1(O)[C@H]3Cc4ccc(O)c5c4[C@@]1(CCN3CC1CC1)[C@H]2O5 | – | – | – | – | – | – | – | – | – | – | – | – | Selectivity ratio (Homo sapiens [10]): 40; Selectivity ratio (Homo sapiens [11]): 40 |
| O=C1CCC2=C([C@@H]3Oc4c(O)ccc5c4[C@@]34CCN(CC3CC3)[C@H](C5)[C@]4(O)C2)N1CC1CCCCC1 | – | 0.28 nM | 0.11 nM | 0.33 nM | – | -1% | 5% | -5% | – | – | – | – | Ki (Nociceptin receptor [12]): 880 nM |
| CN1C(=O)[C@H](CCO)CC2=C1[C@@H]1Oc3c(O)ccc4c3[C@@]13CCN(C)[C@H](C4)[C@]3(O)C2 | 321 nM | 3.59 nM | 2.37 nM | 48.7 nM | – | – | – | – | 163 nM | 66% | 11.8 nM | 36% | – |
| C[C@@H]1CC2=C([C@@H]3Oc4c(O)ccc5c4[C@@]34CCN(CC3CC3)[C@H](C5)[C@]4(O)C2)N(Cc2ccccc2)C1=O | 0.23 nM | 0.85 nM | 0.56 nM | 0.95 nM | 0.5 nM | – | – | – | – | – | – | – | Ke [3]: 0.23 nM |
| CN1C(=O)CCC2=C1[C@@H]1Oc3c(O)ccc4c3[C@@]13CCN(C)[C@H](C4)[C@]3(O)C2 | – | 9.39 nM | 1.23 nM | 20.4 nM | – | – | – | – | 80 nM | 67% | 25.5 nM | 40% | – |
| O=C1CCC2=C([C@@H]3Oc4c(O)ccc5c4[C@@]34CCN(CC3CC3)[C@H](C5)[C@]4(O)C2)N1Cc1cccc(Cl)c1 | – | – | – | – | – | -1% | 7% | -11% | – | – | – | – | – |
| O=C1CCC2=C([C@@H]3Oc4c(O)ccc5c4[C@@]34CCN(CC3CC3)[C@H](C5)[C@]4(O)C2)N1CCc1ccccc1 | – | – | – | – | – | 1% | 5% | -10% | – | – | – | – | Ki (Nociceptin receptor [12]): 1500 nM |
| CCOC(=O)Cc1c2c(n(Cc3ccccc3)c1O)[C@@H]1Oc3c(O)ccc4c3[C@@]13CCN(CC1CC1)[C@H](C4)[C@]3(O)C2 | – | 10 nM | 8.65 nM | 4.79 nM | 6.61 nM | – | – | – | – | – | – | – | Ke [3]: 6.79 nM |
| O=C1CCC2=C([C@@H]3Oc4c(O)ccc5c4[C@@]34CCN(CC3CC3)[C@H](C5)[C@]4(O)C2)N1Cc1ccccc1 | – | 0.36 nM | 0.18 nM | 0.15 nM | – | -1% | 12% | -20% | – | – | – | – | Ki (Nociceptin receptor [12]): 1300 nM |
| CN1CC[C@]23c4c5ccc(O)c4O[C@H]2C2=C(CCC(=O)N2Cc2ccccc2)C[C@@]3(O)[C@H]1C5 | 21.3 nM | 0.92 nM | 0.29 nM | 1.98 nM | – | – | – | – | 4.97 nM | – | 3 nM | 52% | Ratio Ki (Homo sapiens [17]): 3; Ratio Ki (Homo sapiens [18]): 3 |
| C=CCN1CC[C@]23c4c5ccc(O)c4O[C@H]2C2=C(CCC(=O)N2CCc2ccccc2)C[C@@]3(O)[C@H]1C5 | – | – | – | – | – | -2% | 4% | -15% | – | – | – | – | – |
| O=C1[C@H](CCO)CC2=C([C@@H]3Oc4c(O)ccc5c4[C@@]34CCN(CC3CC3)[C@H](C5)[C@]4(O)C2)N1Cc1ccccc1 | 0.73 nM | 0.7 nM | 0.43 nM | 1.29 nM | 0.35 nM | – | – | – | – | – | – | – | Ke [3]: 0.47 nM |
| CN1CC[C@]23c4c5ccc(O)c4O[C@H]2C2=C(C[C@H](CCO)C(=O)N2Cc2ccccc2)C[C@@]3(O)[C@H]1C5 | 16.8 nM | 2.85 nM | 3 nM | 15.6 nM | – | – | – | – | 94.9 nM | 68% | 10.6 nM | 36% | – |
| CCOC(=O)Cc1c2c(n(Cc3ccccc3)c1O)[C@@H]1Oc3c(O)ccc4c3[C@@]13CCN(C)[C@H](C4)[C@]3(O)C2 | – | 82.1 nM | 13.2 nM | 159 nM | – | – | – | – | 70.5 nM | 74% | 42.5 nM | 86% | Activity [19]: 23%; EC50 [20]: 434 nM |
| CN1CC[C@]23c4c5ccc(O)c4O[C@H]2C2=C(C[C@@H](CCO)C(=O)N2Cc2ccccc2)C[C@@]3(O)[C@H]1C5 | 29.3 nM | 1.02 nM | 2.03 nM | 4.68 nM | 32.9 nM | – | – | – | – | 73% | 2.37 nM | – | – |
| C[C@H]1CC2=C([C@@H]3Oc4c(O)ccc5c4[C@@]34CCN(CC3CC3)[C@H](C5)[C@]4(O)C2)N(Cc2ccccc2)C1=O | 2.03 nM | 1.58 nM | 0.42 nM | 0.71 nM | 0.6 nM | – | – | – | – | – | – | – | Ke [3]: 0.57 nM |
| CN1C(=O)[C@@H](CCO)CC2=C1[C@@H]1Oc3c(O)ccc4c3[C@@]13CCN(C)[C@H](C4)[C@]3(O)C2 | 2140 nM | 9.25 nM | 12.8 nM | 182 nM | – | – | – | – | 709 nM | 80% | 30.6 nM | 37% | – |

— ChEMBL document CHEMBL3352469, “Pyrrolo- and pyridomorphinans: non-selective opioid antagonists and delta opioid agonists/mu opioid partial agonists” (Bioorg Med Chem, 2014)
